Laboratory results taken from BindingDB's records for doi:10.1016/j.bmcl.2010.03.025 (Wyeth Research, 2010).

Biological target: 3-phosphoinositide-dependent protein kinase 1 (PDPK1) (Homo sapiens) (UniProt O15530)
Test: Inhibition of PDK1

IC50: > 10 µM
SMILES: COc1cc(Nc2c(C#N)cnc3cc(/C=C/CCN4CCN(C)CC4)c(OC)cc23)c(Cl)cc1Cl [(E)-4-(2,4-dichloro-5-methoxyphenylamino)-6-methoxy-7-(4-(4-methylpiperazin-1-yl)but-1-enyl)quinoline-3-carbonitrile]
